In ChEMBL document CHEMBL5154761, “Design, synthesis, and evaluation of 9-(pyrimidin-2-yl)-9H-carbazole derivatives disrupting mitochondrial homeostasis in human lung adenocarcinoma” (Eur J Med Chem, 2022):
The source made the active and inactive calls. No cut-off for these calls is given here.

Legend:
A549 [1] = assay: Cytotoxicity against human A549 cells assessed as cell growth inhibition incubated for 48 hrs by MTT assay; type: functional, cell-based; conditions: A549, 48 h
A549 [2] = assay: Cytotoxicity against human A549 cells assessed as cell growth inhibition at 10 uM incubated for 48 hrs by MTT assay relative to control; type: functional
A549 [3] = assay: Induction of cell cycle arrest in human A549 cells assessed as accumulation at G2/M phase at 10 uM incubated for 48 hrs by PI staining based flow cytometry analysis; type: functional

| SMILES | IC50 (A549 [1]) [µM] | inhibition at 10 µM (A549 [2]) [%] | Activity (A549 [3]) |
| --- | --- | --- | --- |
| O=C(c1ccc(F)cc1)c1cccc2c3ccccc3n(-c3ncccn3)c12 | 2.58 | < 50 | Active |
| COc1cccc(C(=O)c2cccc3c4ccccc4n(-c4ncccn4)c23)c1 | 2.39 | 50 | Active |
| O=C(c1ccc(Cl)cc1)c1cccc2c3ccccc3n(-c3ncccn3)c12 | 6.69 | 50 | Active |
| O=C(c1cccs1)c1cccc2c3ccccc3n(-c3ncccn3)c12 | 4.02 | < 50 | Active |
| O=C(c1ccco1)c1cccc2c3ccccc3n(-c3ncccn3)c12 | 14.9 | 50 | Active |
| N#Cc1cccc(C(=O)c2cccc3c4ccccc4n(-c4ncccn4)c23)c1 | 13.7 | < 50 |  |
| O=C(c1ccc(C(F)(F)F)cc1)c1cccc2c3ccccc3n(-c3ncccn3)c12 | 15.6 | 50 | Active |
| O=C(O)c1cccc2c3ccccc3n(-c3ncccn3)c12 | 15.5 |  |  |
| COc1ccccc1C(=O)c1cccc2c3ccccc3n(-c3ncccn3)c12 | 4.02 | < 50 | Active |
| Cc1c2ccncc2c(C)c2c1[nH]c1ccccc12 [ELLIPTECINE] | 3.45 |  |  |
| O=C(c1ccccc1Cl)c1cccc2c3ccccc3n(-c3ncccn3)c12 | 6.84 | 50 | Active |
| O=C(c1ccccc1)c1cccc2c3ccccc3n(-c3ncccn3)c12 | 5.32 | 50 | Active |
